Data: ChEMBL document CHEMBL4014331, “Design and Synthesis of Soluble and Cell-Permeable PI3Kδ Inhibitors for Long-Acting Inhaled Administration” (J Med Chem, 2017)
Values after ≈ are worked out from the molar mass of the structure shown.

Experiments:
[1] = Solubility of the compound; assay type: physicochemical
[2] = Metabolic stability in it dosed rat lungs assessed as compound remaining at 24 hrs post dose by LC-MS/MS analysis; assay type: ADME, organism-based; conditions: lung, inhaled or intranasal, read-out: Stability
[3] = target: PI3-kinase p110-alpha/p85-alpha (Homo sapiens, UniProt P42336); test: Inhibition of recombinant human His6-tagged PI3K p110alpha/p85alpha using DiC8-PIP2 as substrate preincubated for 15 mins followed by substrate addition measured after 60 mins by ADP-Glo assay; assay type: protein-complex assay
Chain of PI3-kinase p110-alpha/p85-alpha (P27986 whole entry): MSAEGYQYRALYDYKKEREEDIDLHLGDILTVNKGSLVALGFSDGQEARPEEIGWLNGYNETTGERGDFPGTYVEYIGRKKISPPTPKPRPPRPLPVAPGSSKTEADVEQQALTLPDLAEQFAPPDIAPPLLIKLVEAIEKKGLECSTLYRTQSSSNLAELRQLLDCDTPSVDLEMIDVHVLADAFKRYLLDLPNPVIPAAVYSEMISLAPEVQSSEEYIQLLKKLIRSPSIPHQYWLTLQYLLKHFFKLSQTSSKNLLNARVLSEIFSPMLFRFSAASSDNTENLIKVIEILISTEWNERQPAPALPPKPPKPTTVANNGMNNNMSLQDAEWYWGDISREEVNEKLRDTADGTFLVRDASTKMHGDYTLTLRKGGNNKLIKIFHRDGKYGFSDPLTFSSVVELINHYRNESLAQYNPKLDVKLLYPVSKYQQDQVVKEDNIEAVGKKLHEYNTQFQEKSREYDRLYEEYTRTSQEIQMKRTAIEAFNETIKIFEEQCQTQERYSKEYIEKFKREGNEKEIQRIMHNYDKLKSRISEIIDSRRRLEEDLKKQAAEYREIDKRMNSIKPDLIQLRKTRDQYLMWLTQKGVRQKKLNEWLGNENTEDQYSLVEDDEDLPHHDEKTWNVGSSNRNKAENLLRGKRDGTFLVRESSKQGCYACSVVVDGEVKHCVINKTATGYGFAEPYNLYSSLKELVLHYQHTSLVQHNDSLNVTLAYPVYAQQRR
Chain of PI3-kinase p110-alpha/p85-alpha (P42336 whole entry): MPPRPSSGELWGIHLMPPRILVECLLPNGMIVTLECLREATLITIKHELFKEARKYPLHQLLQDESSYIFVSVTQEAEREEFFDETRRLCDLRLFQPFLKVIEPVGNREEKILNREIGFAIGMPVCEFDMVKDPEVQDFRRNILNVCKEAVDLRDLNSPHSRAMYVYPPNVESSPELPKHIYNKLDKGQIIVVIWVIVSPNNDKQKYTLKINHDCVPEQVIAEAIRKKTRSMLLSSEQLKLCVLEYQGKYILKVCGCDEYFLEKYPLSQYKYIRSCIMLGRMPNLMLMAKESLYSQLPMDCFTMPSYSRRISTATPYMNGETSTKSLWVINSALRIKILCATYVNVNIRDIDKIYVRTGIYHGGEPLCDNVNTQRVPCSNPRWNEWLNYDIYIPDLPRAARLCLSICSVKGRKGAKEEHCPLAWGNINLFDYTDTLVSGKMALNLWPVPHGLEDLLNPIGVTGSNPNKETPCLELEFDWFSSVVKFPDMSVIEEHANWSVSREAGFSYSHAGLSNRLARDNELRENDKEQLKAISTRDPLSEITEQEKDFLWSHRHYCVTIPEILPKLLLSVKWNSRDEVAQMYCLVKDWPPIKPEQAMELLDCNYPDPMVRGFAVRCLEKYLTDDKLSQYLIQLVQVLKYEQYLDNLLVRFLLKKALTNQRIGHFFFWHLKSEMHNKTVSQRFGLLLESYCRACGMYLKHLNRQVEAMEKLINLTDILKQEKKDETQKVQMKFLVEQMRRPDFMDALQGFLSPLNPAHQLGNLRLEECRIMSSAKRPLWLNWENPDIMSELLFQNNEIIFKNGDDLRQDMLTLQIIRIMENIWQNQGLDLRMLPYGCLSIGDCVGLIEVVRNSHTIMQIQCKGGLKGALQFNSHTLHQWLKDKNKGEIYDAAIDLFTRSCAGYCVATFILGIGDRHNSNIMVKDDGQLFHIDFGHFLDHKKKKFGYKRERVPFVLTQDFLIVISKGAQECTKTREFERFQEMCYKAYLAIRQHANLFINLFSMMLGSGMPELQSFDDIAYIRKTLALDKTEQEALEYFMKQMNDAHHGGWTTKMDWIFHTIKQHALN

[4] = target: PI3-kinase p110-delta/p85-alpha (Homo sapiens, UniProt O00329); test: Inhibition of recombinant human His6-tagged PI3K p110delta/p85alpha using DiC8-PIP2 as substrate preincubated for 15 mins followed by substrate addition measured after 60 mins by ADP-Glo assay; assay type: protein-complex assay
Chain of PI3-kinase p110-delta/p85-alpha (P27986 whole entry, one chain of several): as the sequence (P27986 whole entry) above

[5] = Metabolic stability in it dosed rat lungs assessed as compound remaining at 4 hrs post dose by LC-MS/MS analysis; assay type: ADME, organism-based; conditions: lung, inhaled or intranasal, read-out: Stability
[6] = Lipophilicity, log D of the compound; assay type: physicochemical; conditions: octanol/water
[7] = Terminal half life in it dosed rat lung by LC-MS/MS analysis; assay type: ADME, organism-based; conditions: inhaled or intranasal, read-out: beta t1/2 (converted)
[8] = target: PI3K p110 beta/p85 alpha (Homo sapiens, UniProt P42338); test: Inhibition of recombinant human His6-tagged PI3K p110beta/p85alpha using DiC8-PIP2 as substrate preincubated for 15 mins followed by substrate addition measured after 60 mins by ADP-Glo assay; assay type: protein-complex assay
Chain of PI3K p110 beta/p85 alpha (P27986 whole entry, the tested form may be a part, canonical isoform): as the sequence (P27986 whole entry) above
Chain of PI3K p110 beta/p85 alpha (P42338 whole entry, the tested form may be a part, canonical isoform): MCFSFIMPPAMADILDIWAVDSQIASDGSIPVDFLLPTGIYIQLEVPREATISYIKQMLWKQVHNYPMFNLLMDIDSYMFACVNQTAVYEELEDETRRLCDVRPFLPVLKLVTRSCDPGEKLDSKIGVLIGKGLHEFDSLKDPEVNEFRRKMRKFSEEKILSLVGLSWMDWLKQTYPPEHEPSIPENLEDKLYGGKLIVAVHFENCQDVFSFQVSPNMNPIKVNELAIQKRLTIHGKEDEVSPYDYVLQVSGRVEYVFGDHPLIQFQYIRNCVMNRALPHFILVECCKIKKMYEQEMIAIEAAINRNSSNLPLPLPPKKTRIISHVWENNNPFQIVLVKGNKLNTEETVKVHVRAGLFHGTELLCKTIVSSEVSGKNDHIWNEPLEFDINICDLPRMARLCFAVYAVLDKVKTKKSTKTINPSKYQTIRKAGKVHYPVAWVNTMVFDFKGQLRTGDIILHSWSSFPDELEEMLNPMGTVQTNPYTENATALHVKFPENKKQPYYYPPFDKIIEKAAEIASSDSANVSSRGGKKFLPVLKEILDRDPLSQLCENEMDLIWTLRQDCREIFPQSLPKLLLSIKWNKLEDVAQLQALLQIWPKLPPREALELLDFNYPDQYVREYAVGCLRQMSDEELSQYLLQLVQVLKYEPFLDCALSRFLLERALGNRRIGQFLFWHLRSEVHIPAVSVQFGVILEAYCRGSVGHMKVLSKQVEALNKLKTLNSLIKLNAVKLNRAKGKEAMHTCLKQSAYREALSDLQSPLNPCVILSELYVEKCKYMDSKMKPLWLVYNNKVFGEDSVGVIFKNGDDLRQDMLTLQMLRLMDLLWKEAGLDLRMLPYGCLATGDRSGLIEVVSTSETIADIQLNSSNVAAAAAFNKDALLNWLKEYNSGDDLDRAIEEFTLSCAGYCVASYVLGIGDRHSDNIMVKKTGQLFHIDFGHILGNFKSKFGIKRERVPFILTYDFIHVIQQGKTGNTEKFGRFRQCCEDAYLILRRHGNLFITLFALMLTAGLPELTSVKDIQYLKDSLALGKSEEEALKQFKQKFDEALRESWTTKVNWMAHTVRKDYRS

[9] = target: Phosphatidylinositol 4,5-bisphosphate 3-kinase catalytic subunit gamma isoform (Homo sapiens, UniProt P48736); test: Inhibition of recombinant human His6-tagged PI3Kgamma (144 to 1102 residues) using DiC8-PIP2 as substrate preincubated for 15 mins followed by substrate addition measured after 60 mins by ADP-Glo assay
Chain of Phosphatidylinositol 4,5-bisphosphate 3-kinase catalytic subunit gamma isoform (P48736 whole entry, the tested form may be a part, canonical isoform): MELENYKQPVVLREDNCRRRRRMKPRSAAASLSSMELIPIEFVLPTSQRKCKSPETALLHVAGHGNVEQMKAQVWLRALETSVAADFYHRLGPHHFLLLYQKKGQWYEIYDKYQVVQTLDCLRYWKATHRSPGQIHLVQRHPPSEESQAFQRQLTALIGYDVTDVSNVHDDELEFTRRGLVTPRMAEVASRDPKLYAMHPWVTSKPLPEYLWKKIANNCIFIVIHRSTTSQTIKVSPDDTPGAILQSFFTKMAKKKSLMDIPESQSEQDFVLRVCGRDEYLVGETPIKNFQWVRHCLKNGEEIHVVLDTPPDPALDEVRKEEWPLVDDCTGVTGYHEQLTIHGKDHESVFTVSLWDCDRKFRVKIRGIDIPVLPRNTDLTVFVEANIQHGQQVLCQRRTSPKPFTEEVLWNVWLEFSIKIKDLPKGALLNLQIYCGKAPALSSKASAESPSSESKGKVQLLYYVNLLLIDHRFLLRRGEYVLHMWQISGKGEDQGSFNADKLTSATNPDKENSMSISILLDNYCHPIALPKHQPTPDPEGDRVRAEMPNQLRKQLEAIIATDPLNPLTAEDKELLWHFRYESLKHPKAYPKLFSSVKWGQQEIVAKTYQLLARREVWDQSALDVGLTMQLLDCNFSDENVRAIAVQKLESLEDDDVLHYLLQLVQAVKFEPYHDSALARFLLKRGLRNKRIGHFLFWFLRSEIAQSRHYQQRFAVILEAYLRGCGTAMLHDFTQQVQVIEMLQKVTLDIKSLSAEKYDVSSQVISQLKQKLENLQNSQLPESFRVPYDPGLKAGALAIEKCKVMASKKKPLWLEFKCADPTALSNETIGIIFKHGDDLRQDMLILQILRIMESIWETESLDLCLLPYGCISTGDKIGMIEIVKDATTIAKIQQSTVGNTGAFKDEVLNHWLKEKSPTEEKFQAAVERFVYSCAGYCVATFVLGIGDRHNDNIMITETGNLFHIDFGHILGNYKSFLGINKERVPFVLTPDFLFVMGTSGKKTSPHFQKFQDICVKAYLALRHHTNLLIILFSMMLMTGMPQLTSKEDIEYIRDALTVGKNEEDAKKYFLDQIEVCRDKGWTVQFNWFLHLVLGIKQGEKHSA

[10] = target: T1, Phosphatidylinositol 4,5-bisphosphate 3-kinase catalytic subunit delta isoform (Homo sapiens, UniProt O00329); test: Inhibition of PI3Kdelta in human JeKo1 cells assessed as reduction in Akt phosphorylation at Ser473 residue preincubated for 60 mins followed by Anti-IgM stimulation for 10 mins by TR-FRET assay; assay type: cell-based
T1 sequence (O00329 whole entry): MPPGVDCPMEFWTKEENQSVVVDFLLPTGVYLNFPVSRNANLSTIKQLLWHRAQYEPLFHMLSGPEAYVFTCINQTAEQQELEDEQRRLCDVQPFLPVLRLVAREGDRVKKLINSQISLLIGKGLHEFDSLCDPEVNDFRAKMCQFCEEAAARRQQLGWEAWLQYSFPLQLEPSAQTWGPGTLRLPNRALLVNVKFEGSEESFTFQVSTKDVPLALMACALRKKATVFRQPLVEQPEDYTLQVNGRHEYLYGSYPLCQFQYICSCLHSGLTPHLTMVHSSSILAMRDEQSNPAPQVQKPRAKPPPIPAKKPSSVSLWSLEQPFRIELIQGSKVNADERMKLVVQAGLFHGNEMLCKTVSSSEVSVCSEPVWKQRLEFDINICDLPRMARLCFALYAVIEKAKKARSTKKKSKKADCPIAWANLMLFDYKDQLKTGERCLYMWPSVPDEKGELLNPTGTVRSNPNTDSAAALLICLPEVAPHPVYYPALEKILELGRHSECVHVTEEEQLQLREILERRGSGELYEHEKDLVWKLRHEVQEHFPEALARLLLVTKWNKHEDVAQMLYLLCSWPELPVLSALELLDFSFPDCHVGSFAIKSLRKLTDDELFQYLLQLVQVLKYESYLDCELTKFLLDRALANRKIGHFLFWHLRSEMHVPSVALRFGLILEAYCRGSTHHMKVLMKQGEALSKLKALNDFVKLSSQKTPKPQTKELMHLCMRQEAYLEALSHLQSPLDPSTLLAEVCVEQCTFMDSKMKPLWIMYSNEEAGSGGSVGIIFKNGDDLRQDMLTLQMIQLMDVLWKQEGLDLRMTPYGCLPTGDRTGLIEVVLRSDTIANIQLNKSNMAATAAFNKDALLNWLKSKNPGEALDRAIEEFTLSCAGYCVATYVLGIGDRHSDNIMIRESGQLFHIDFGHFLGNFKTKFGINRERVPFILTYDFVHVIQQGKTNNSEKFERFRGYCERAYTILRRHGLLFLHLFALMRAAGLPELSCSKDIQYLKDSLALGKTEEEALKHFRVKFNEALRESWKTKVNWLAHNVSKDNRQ

[11] = Dissociation constant, acidic pKa of compound; assay type: physicochemical
[12] = Dissociation constant, basic pKa of compound; assay type: physicochemical

solubility [1] [µM]	remaining at 24 h [2] [%]	IC50 [3] [µM]	IC50 [4] [µM]	remaining at 4 h [5] [%]	logD [6]	half-life [7] [h]	IC50 [8] [µM]	IC50 [9] [µM]	IC50 [10] [µM]	pKa [11]	pKa [12]	Structure (SMILES)
954 (≈ 450 µg/mL)	0	1.58	0.000501	0.5	0.5	1.1	0.0398	0.501	0.00251	–	–	Cc1csc2cc([C@H](C)Nc3ncnc(N)c3C#N)c(-c3cccc(CN4CCC4)c3)c(=O)n12
–	–	1.26	0.000794	–	0.5	–	0.0501	> 1	0.00251	–	–	Cc1csc2cc([C@H](C)Nc3ncnc(N)c3C#N)c(-c3cccc(CCN(C)C)c3)c(=O)n12
> 1000	0	1.26	0.000631	2	-0.3	1.6	0.00794	0.2	0.0398	–	–	Cc1csc2cc([C@H](C)Nc3ncnc(N)c3C#N)c(-c3cccc(CN)c3)c(=O)n12
956 (≈ 439 µg/mL)	0	3.16	0.000794	0.2	0.8	2.3	0.0631	0.631	0.00158	–	–	Cc1csc2cc([C@H](C)Nc3ncnc(N)c3C#N)c(-c3cccc(CN(C)C)c3)c(=O)n12
> 1000	0	1.26	0.000631	0.8	0.7	1.3	0.02	0.398	0.00251	–	–	COCCNCc1cccc(-c2c([C@H](C)Nc3ncnc(N)c3C#N)cc3scc(C)n3c2=O)c1
> 1000	0	1.26	0.000794	2.5	-0.2	4.9	0.01	0.631	0.02	–	–	CNCc1cccc(-c2c([C@H](C)Nc3ncnc(N)c3C#N)cc3scc(C)n3c2=O)c1

Further lines, the compound ahead of its results:

Structure (SMILES)	solubility [1] [µM]	remaining at 24 h [2] [%]	IC50 [3] [µM]	IC50 [4] [µM]	remaining at 4 h [5] [%]	logD [6]	half-life [7] [h]	IC50 [8] [µM]	IC50 [9] [µM]	IC50 [10] [µM]	pKa [11]	pKa [12]
Cc1csc2cc([C@H](C)Nc3ncnc(N)c3C#N)c(-c3cccc(CC4CCN(C(C)C)CC4)c3)c(=O)n12	–	–	1	0.000631	–	1.1	–	0.398	0.251	0.00158	–	–
Cc1csc2cc([C@H](C)Nc3ncnc(N)c3C#N)c(-c3cccc(CN4CCC(CN(C)Cc5ccccn5)CC4)c3)c(=O)n12	–	5.2	≥ 0.631	0.000794	–	2	10.9	0.0631	≥ 0.2	0.002	9	7
Cc1csc2cc([C@H](C)Nc3ncnc(N)c3C#N)c(-c3cccc(CN(C)CCCN4C[C@@H](C)O[C@@H](C)C4)c3)c(=O)n12	–	0.8	≥ 0.631	0.00126	–	1.5	5.9	0.126	≥ 0.2	0.00501	8.5	5.7
Cc1csc2cc([C@H](C)Nc3ncnc(N)c3C#N)c(-c3cccc(CN(C)CCCN(C)Cc4ccc(Cl)cc4)c3)c(=O)n12	–	3.3	≥ 0.631	0.000631	–	3.2	13	0.0126	≥ 0.2	0.00316	8.8	7.5
Cc1csc2cc([C@H](C)Nc3ncnc(N)c3C#N)c(-c3cccc(CN(C)CCCCN4C[C@@H](C)O[C@@H](C)C4)c3)c(=O)n12	–	3.9	≥ 0.631	0.00126	–	1.5	7.6	0.0794	≥ 0.2	0.00631	8.9	6.3
Cc1csc2cc([C@H](C)Nc3ncnc(N)c3C#N)c(-c3cccc(OCCN(C)C)c3)c(=O)n12	–	–	7.94	0.00158	–	0.7	–	0.2	0.316	0.00631	–	–
Cc1csc2cc([C@H](C)Nc3ncnc(N)c3C#N)c(-c3cccc(CN(C)CCCCN(C)Cc4ccccc4)c3)c(=O)n12	–	7.4	≥ 0.631	0.000501	–	2.2	17.6	0.0158	≥ 0.2	0.002	9.1	7
CCN(CCN1CCOCC1)Cc1cccc(-c2c([C@H](C)Nc3ncnc(N)c3C#N)cc3scc(C)n3c2=O)c1	–	0	≥ 0.631	0.000794	–	1.4	–	0.251	≥ 0.2	0.00126	8	4
Cc1csc2cc([C@H](C)Nc3ncnc(N)c3C#N)c(-c3cccc(CNCCN4CCOCC4)c3)c(=O)n12	–	0.1	≥ 0.631	0.000631	–	0.6	4.2	0.02	≥ 0.2	0.0126	9.6	4.7
Cc1csc2cc([C@H](C)Nc3ncnc(N)c3C#N)c(-c3cccc(CN4CCC(CN(C)CC(C)C)CC4)c3)c(=O)n12	–	3.3	≥ 0.631	0.000631	–	2.1	12	0.0501	≥ 0.2	0.00251	9.8	8
